From BindingDB's records for doi:10.1073/pnas.0606956103 (Targegen, 2006)

Key:
Assay in all cases: Determination of PI3K Activity
Conditions in all cases: pH 7.4; 22 °C
[1] = molecular target: Phosphatidylinositol 3-kinase regulatory subunit alpha/4,5-bisphosphate 3-kinase catalytic subunit delta isoform (Homo sapiens, UniProt O00329)
[2] = molecular target: Phosphatidylinositol 3-kinase regulatory subunit alpha/4,5-bisphosphate 3-kinase catalytic subunit beta isoform (Homo sapiens, UniProt P42338)
Chain of Phosphatidylinositol 3-kinase regulatory subunit alpha/4,5-bisphosphate 3-kinase catalytic subunit beta isoform (P27986 whole entry, canonical isoform): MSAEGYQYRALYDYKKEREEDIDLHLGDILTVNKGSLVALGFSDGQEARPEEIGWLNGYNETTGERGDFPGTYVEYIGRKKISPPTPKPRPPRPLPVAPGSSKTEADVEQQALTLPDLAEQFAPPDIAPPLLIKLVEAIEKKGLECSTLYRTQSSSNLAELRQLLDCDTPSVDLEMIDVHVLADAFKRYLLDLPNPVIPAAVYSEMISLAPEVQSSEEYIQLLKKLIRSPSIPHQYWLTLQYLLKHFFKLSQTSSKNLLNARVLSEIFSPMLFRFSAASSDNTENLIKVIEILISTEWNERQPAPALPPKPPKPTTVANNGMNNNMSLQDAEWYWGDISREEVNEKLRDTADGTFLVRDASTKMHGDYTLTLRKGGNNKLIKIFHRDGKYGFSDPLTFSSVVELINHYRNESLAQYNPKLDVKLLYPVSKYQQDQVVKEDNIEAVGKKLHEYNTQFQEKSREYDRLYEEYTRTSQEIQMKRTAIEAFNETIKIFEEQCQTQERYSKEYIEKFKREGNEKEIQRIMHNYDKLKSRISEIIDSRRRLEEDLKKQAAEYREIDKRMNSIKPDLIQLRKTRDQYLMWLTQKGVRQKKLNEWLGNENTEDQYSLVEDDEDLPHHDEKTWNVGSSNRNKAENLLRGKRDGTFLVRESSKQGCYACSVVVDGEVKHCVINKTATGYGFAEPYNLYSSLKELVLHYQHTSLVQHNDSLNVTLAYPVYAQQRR
Chain of Phosphatidylinositol 3-kinase regulatory subunit alpha/4,5-bisphosphate 3-kinase catalytic subunit beta isoform (P42338 whole entry, canonical isoform): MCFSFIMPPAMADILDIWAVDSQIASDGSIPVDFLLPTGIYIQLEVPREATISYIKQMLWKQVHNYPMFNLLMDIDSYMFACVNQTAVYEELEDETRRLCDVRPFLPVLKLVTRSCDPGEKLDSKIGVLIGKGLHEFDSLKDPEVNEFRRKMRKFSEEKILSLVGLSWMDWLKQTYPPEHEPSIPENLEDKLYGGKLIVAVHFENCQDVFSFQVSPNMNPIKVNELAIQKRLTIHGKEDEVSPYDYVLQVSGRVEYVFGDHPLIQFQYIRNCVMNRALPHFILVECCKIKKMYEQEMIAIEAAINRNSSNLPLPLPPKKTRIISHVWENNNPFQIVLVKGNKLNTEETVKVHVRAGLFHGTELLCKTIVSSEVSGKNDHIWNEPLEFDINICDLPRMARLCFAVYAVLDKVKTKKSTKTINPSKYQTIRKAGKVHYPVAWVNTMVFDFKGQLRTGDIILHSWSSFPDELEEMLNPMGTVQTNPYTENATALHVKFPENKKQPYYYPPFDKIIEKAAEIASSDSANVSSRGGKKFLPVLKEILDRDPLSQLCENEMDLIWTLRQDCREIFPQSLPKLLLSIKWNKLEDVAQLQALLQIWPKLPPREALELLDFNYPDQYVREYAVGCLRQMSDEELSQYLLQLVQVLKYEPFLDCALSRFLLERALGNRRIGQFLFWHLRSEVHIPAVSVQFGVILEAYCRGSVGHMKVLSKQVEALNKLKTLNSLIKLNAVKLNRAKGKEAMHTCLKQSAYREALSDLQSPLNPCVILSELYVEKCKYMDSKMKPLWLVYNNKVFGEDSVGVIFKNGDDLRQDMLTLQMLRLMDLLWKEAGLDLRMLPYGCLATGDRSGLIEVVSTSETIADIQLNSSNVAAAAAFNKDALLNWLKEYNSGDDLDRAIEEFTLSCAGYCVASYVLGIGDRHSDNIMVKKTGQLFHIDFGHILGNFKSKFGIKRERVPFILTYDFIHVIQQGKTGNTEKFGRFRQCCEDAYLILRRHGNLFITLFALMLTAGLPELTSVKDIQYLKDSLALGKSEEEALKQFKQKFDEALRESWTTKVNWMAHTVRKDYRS

[3] = molecular target: Phosphatidylinositol 3-kinase regulatory subunit alpha/4,5-bisphosphate 3-kinase catalytic subunit alpha isoform (Homo sapiens, UniProt P42336)
Chain of Phosphatidylinositol 3-kinase regulatory subunit alpha/4,5-bisphosphate 3-kinase catalytic subunit alpha isoform (P27986 whole entry, canonical isoform): as the sequence (P27986 whole entry, canonical isoform) above
Chain of Phosphatidylinositol 3-kinase regulatory subunit alpha/4,5-bisphosphate 3-kinase catalytic subunit alpha isoform (P42336 whole entry, canonical isoform): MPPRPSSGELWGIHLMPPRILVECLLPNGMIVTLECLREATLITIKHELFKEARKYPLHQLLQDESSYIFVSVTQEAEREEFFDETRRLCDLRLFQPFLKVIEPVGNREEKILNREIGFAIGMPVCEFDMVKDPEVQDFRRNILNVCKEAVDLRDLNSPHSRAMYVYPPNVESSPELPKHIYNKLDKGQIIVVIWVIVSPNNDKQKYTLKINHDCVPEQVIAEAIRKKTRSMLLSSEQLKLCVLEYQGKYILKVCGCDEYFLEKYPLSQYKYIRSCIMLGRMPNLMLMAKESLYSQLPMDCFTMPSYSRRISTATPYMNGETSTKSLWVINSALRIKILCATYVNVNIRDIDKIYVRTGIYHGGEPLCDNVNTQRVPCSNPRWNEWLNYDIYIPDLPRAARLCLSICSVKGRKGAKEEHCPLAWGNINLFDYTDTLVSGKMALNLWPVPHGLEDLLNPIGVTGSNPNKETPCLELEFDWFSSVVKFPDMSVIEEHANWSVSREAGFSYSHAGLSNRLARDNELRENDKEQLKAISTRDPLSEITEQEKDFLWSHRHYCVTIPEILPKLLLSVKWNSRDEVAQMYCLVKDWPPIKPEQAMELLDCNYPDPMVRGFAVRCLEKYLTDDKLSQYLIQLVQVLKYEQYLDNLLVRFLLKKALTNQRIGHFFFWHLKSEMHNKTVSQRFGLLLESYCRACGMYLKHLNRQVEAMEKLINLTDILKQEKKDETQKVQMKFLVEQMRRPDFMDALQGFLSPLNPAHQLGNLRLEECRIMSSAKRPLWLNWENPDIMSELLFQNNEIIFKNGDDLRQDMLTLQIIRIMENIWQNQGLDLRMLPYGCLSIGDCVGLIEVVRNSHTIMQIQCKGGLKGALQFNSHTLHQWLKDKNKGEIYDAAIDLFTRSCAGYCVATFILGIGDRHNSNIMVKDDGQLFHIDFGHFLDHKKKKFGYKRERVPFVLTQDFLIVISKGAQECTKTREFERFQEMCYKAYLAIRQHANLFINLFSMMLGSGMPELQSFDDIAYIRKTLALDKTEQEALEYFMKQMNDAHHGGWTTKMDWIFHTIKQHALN

Chain of Phosphatidylinositol 3-kinase regulatory subunit alpha/4,5-bisphosphate 3-kinase catalytic subunit delta isoform (P27986 whole entry, canonical isoform): as the sequence (P27986 whole entry, canonical isoform) above
Chain of Phosphatidylinositol 3-kinase regulatory subunit alpha/4,5-bisphosphate 3-kinase catalytic subunit delta isoform (O00329 whole entry, canonical isoform): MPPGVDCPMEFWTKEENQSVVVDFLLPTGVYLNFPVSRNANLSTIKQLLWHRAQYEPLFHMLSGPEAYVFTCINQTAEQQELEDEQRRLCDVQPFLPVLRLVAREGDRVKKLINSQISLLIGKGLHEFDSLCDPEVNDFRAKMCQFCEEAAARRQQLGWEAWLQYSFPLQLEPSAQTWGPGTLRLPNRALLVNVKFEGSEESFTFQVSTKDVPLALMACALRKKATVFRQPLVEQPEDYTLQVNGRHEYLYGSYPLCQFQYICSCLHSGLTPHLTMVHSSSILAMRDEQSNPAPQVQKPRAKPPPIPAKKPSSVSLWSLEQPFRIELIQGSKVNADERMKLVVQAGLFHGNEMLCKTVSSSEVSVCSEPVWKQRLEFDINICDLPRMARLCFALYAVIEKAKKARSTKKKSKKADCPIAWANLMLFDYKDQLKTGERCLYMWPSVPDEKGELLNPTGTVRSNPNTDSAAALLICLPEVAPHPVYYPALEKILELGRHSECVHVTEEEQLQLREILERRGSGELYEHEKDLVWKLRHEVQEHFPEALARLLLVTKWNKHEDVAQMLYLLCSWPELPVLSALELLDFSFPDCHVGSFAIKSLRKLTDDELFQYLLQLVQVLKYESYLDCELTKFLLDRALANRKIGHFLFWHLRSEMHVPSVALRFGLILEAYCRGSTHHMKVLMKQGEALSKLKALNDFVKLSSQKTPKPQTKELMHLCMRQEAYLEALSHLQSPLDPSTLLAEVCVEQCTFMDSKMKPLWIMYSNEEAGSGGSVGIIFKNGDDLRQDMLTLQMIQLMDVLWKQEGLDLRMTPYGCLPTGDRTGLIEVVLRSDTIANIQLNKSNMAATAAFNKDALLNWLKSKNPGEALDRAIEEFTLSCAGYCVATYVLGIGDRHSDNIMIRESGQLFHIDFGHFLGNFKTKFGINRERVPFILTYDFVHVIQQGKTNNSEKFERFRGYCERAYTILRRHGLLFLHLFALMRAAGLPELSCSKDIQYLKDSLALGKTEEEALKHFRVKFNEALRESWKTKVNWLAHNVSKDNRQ

| IC50 [1] | IC50 [2] | IC50 [3] | Compound |
| --- | --- | --- | --- |
| 561 nM |  |  | O=c1cc(N2CCOCC2)oc2c(-c3ccccc3)cccc12 |
| 64 nM | 107 nM | 1200 nM | Nc1nc(N)c2nc(-c3cccc4[nH]ccc34)cnc2n1 [6-(1H-indol-4-yl)pteridine-2,4-diamine] |
